Laboratory results from patent US12649712B2, “Indene compounds, pharmaceutical compositions thereof, and their therapeutic applications” (NucMito Pharmaceuticals Co. Ltd., priority 2020, dated 2026).

Each compound was assayed on alpha-smooth muscle actin (α-SMA) (assay: Inhibition of TGF-β induced expression of alpha-smooth muscle actin (α-SMA) in CFSC cells, western blot). Conditions: compound at 10 μM, TGF-β (10 ng/mL), 24 hours, decrease in band intensity vs TGF-β only.
Assay type: cell-based
Experimental: The ability of a compound to inhibit the TGF-β induced expression of alpha-smooth muscle actin (α-SMA) was evaluated in CCL4-treated fat storing (CFSC) cells. α-SMA is considered as a reliable marker of hepatic stellate cell activation and a key biomarker for liver fibrosis. See, e.g., Meng et al., Nat. Rev. Nephrol. 2016, 12, 325-38; Fabregat et al., FEBS J. 2016, 283, 2219-32.
CFSC cells maintained in a DMEM medium supplemented with 10% fetal bovine serum were seeded to 12-well culture dishes and grown to a confluence of 60-70% the next day. Culture was changed to a serum-free DMEM medium and treated with a compound at 10 μM in the presence of TGF-β (10 ng/mL). The cells were incubated for another 24 hours. All culture was maintained at 37° C. in 5% carbon dioxide.
A NP-40 lysate solution (50 mM Tris (pH 7.4), 150 mM NaCl, 1% NP-40) with EDTA free cocktail added was used to lyse the cells on ice for 30 min. The lysate was collected and centrifuged at 4° C. for 10 min at 12,000 rpm. The pellet was discarded and the supernatant was transferred to a new tube. Cell lysates were loaded with 5×loading buffer and boiled for 10 min, resolved by 10% SDS-polyacrylamide gel electrophoresis (SDS-PAGE), and transferred to PVDF membrane. The membrane was blocked with 5% skim milk in Tris-buffered saline and TWEEN® 20 (TBST; 10 mM Tris-HCl (pH 8.0), 150 mM NaCl, 0.1% TWEEN® 20) for 1 h at room temperature and then incubated with α-SMA and […] antibodies overnight at 4° C. After washing twice with TBST, the membrane was probed with a horseradish […] anti-immunoglobulin (1:5000 dilution) for 1 h at room temperature. After two subsequent rinses in TBST, immunoreactive products were reacted with ECL and visualized by a UVP CHEMSTUDIO™ imaging system. The western blotting bands are quantitated using an ImageJ software. The percentage of inhibition was obtained by calculating the percentage decrease in the band intensity compared to the one treated with TGF-β only.
The results are summarized in Table 1, wherein A represents a value no less of 90% inhibition, B represents a value less than 90% but no less than 80% inhibition, C represents a value less than 80% but no less than 70% inhibition, D represents a value less than 70% but no less than 50% inhibition, and E represents a value less than 50% with a compound at 10 μM.

SMILES | inhibition at 10 µM [%]
CC1=C(CC(=O)O)c2cc(F)ccc2/C1=C\c1ccc(C2CC2)cc1 [Compound B37, 2-[(1Z)-1-[(4-cyclopropylphenyl)methylidene]-5-fluoro-2-methyl-1H-inden-3-yl]acetic acid] | 80 to 90
C=C(C)c1ccc(/C=C2/C(C)=C(CC(=O)O)c3cc(F)ccc32)cc1 [Compound B39, 2-[(1Z)-5-fluoro-2-methyl-1-{[4-(prop-1-en-2-yl)phenyl]methylidene}-1H-inden-3-yl]acetic acid] | < 50
CC1=C(CC(=O)O)c2cc(F)ccc2/C1=C\c1ccc(C(C(F)(F)F)C(F)(F)F)cc1 [Compound B42, 2-[(1Z)-5-fluoro-1-{[4-(1,1,1,3,3,3-hexafluoropropan-2-yl)phenyl]methylidene}-2-methyl-1H-inden-3-yl]acetic acid] | 80 to 90
CC1=C(CC(=O)N(C)O)c2cc(F)ccc2/C1=C\c1ccc(Oc2ccccc2)cc1 [Compound C1, 2-[(1Z)-5-Fluoro-2-methyl-1-[(4-phenoxyphenyl)methylidene]-1H-inden-3-yl]-N-hydroxy-N-methylacetamide] | 80 to 90
CC1=C(CC(=O)N(C)O)c2cc(F)ccc2/C1=C\c1ccc(Oc2ccc(F)cc2)cc1 [Compound C2, 2-[(1Z)-5-Fluoro-1-{[4-(4-fluorophenoxy)phenyl]methylidene}-2-methyl-1H-inden-3-yl]-N-hydroxy-N-methylacetamide] | > 90
CC1=C(CC(=O)N(C)O)c2cc(F)ccc2/C1=C\c1cccc(Oc2ccccc2)c1 [Compound C3, (Z)-2-(5-Fluoro-2-methyl-1-(3-phenoxybenzylidene)-1H-inden-3-yl)-N-hydroxy-N-methylacetamide] | 80 to 90
CC1=C(CC(=O)NO)c2cc(F)ccc2/C1=C\c1ccc(Oc2ccc(C(C)C)cc2)cc1 [Compound D1, 2-[(1Z)-5-Fluoro-2-methyl-1-({4-[4-(propan-2-yl)phenoxy]phenyl}methylidene)-1H-inden-3-yl]-N-hydroxyacetamide] | > 90
CC1=C(CC(=O)O)c2cc(F)ccc2/C1=C\c1ccc(Oc2ccc(C(C)(C)C)cc2)cc1 [Compound D2, 2-[(1Z)-5-Fluoro-2-methyl-1-({4-[4-(tert-butyl)phenoxy]phenyl}methylidene)-1H-inden-3-yl]acetic acid] | > 90
CC1=C(CC(=O)O)c2cc(F)ccc2/C1=C\c1ccc(Oc2cccc(C(C)(C)C)c2)cc1 [Compound D3, 2-[(1Z)-5-Fluoro-2-methyl-1-({4-[3-(tert-butyl)phenoxy]phenyl}methylidene)-1H-inden-3-yl]acetic acid] | > 90
CC1=C(CC(=O)O)c2cc(F)ccc2/C1=C\c1ccc(Oc2ccc(C)c(F)c2)cc1 [Compound D4, 2-[(1Z)-5-Fluoro-2-methyl-1-({4-[3-fluoro-4-methylphenoxy]phenyl}-methylidene)-1H-inden-3-yl]acetic acid] | < 50
CC1=C(CC(=O)O)c2cc(F)ccc2/C1=C\c1ccc(Oc2ccc(F)c(F)c2)cc1 [Compound D5, 2-[(1Z)-5-Fluoro-2-methyl-1-({4-[3,4-difluorophenoxy]phenyl}methylidene)-1H-inden-3-yl]acetic acid] | > 90
CC1=C(CC(=O)O)c2cc(F)ccc2/C1=C\c1ccc(Oc2cccc([N+](=O)[O-])c2)cc1 [Compound D6, 2-[(1Z)-5-Fluoro-2-methyl-1-({4-[3-nitrophenoxy]phenyl}methylidene)-1H-inden-3-yl]acetic acid] | < 50
CC1=C(CC(=O)O)c2cc(F)ccc2/C1=C\c1ccc(Oc2ccc(C(F)(F)F)cc2)cc1 [Compound D7, 2-[(1Z)-5-Fluoro-2-methyl-1-({4-[4-(trifluoromethyl)phenoxy]phenyl}-methylidene)-1H-inden-3-yl]acetic acid] | > 90
CC(C)CC1=C(CC(=O)O)c2cc(F)ccc2/C1=C\c1ccc(Oc2ccc(F)cc2)cc1 [Compound D8, 2-[(1Z)-5-Fluoro-1-{[4-(4-fluorophenoxy)phenyl]methylidene}-2-(2-methylpropyl)-1H-inden-3-yl]acetic acid] | > 90
O=C(O)CC1=C(Cc2ccccc2)/C(=C/c2ccc(Oc3ccc(F)cc3)cc2)c2ccc(F)cc21 [Compound D9, 2-[(1Z)-5-Fluoro-2-benzyl-1-({4-[4-fluorophenoxy]phenyl}methylidene)-1H-inden-3-yl]acetic acid] | < 50
COc1ccc2c(c1)C(CC(=O)O)=C(C)/C2=C/c1ccc(Oc2ccc(F)cc2)cc1 [Compound D10, 2-[(1Z)-5-Methoxy-2-methyl-1-({4-[4-fluorophenoxy]phenyl}methylidene)-1H-inden-3-yl]acetic acid] | > 90
COc1ccc2c(c1)C(CC(=O)O)=C(C)/C2=C/c1ccc(Oc2ccccc2)cc1 [Compound D11, 2-[(1Z)-5-Methoxy-2-methyl-1-[(4-phenoxyphenyl)methylidene]-1H-inden-3-yl]acetic acid] | > 90
CC1=C(CC(=O)O)c2cc(F)ccc2/C1=C\c1ccc(Oc2ccc(F)cc2)cc1C(F)(F)F [Compound D12, 2-[(1Z)-1-{[2-Trifluoromethyl-4-(4-fluorophenoxy)phenyl]methylidene}-5-fluoro-2-methyl-1H-inden-3-yl]acetic acid] | < 50
CC1=C(CC(=O)O)c2cc(F)ccc2/C1=C\c1ccc(Oc2ccc(F)cc2)c(C)c1 [Compound D13, 2-[(1Z)-1-{[3-Methyl-4-(4-fluorophenoxy)phenyl]methylidene}-5-fluoro-2-methyl-1H-inden-3-yl]acetic acid] | < 50
CC1=C(CC(=O)O)c2cc(F)ccc2/C1=C\c1ccc(Oc2ccc(F)cc2)cc1C [Compound D14, 2-[(1Z)-1-{[2-Methyl-4-(4-fluorophenoxy)phenyl]methylidene}-5-fluoro-2-methyl-1H-inden-3-yl]acetic acid] | > 90
CC1=C(CC(=O)O)c2cc(F)cc(F)c2/C1=C\c1ccc(Oc2ccc(F)cc2)cc1 [Compound D15, 2-[(1Z)-5,7-Difluoro-2-methyl-1-({4-[4-fluorophenoxy]phenyl}methylidene)-1H-inden-3-yl]acetic acid] | > 90
CC1=C(CC(=O)O)c2c(F)cc(F)cc2/C1=C\c1ccc(Oc2ccc(F)cc2)cc1 [Compound D16, 2-[(1Z)-4,6-Difluoro-2-methyl-1-({4-[4-fluorophenoxy]phenyl}methylidene)-1H-inden-3-yl]acetic acid] | < 50
CC1=C(CC(=O)O)c2cc(F)ccc2/C1=C\c1cccc(Oc2ccccc2)c1 [Compound D18, (Z)-2-(5-Fluoro-2-methyl-1-(3-phenoxybenzylidene)-1H-inden-3-yl)acetic acid] | > 90
CC1=C(CC(=O)O)c2cc(F)ccc2/C1=C\c1ccccc1Oc1ccccc1 [Compound D19, 2-[(1Z)-5-Fluoro-1-(2-(phenoxy)benzylidene)-2-methyl-1H-inden-3-yl]-acetic acid] | < 50
CC1=C(CC(=O)O)c2cc(F)cc(F)c2/C1=C\c1cccc(Oc2ccccc2)c1 [Compound D20, 2-[(1Z)-5,7-Difluoro-1-(3-(phenoxy)benzylidene)-2-methyl-1H-inden-3-yl]-acetic acid] | > 90
CC1=C(CC(=O)O)c2c(F)cc(F)cc2/C1=C\c1cccc(Oc2ccccc2)c1 [Compound D21, 2-[(1Z)-4,6-Difluoro-1-(3-(phenoxy)benzylidene)-2-methyl-1H-inden-3-yl]-acetic acid] | > 90
COc1ccc(Oc2cccc(/C=C3/C(C)=C(CC(=O)O)c4cc(F)ccc43)c2)cc1 [Compound D22, 2-[(1Z)-5-Fluoro-2-methyl-1-({3-[4-methoxyphenoxy]phenyl}methylidene)-1H-inden-3-yl]acetic acid] | > 90
CC1=C(CC(=O)O)c2cc(F)ccc2/C1=C\c1ccc(F)c(Oc2ccccc2)c1 [Compound D23, 2-[(1Z)-5-Fluoro-1-(4-fluoro-3-(phenoxy)benzylidene)-2-methyl-1H-inden-3-yl]-acetic acid] | > 90
CC1=C(CC(=O)O)c2cc(F)ccc2/C1=C\c1cccc(Oc2ccc(Cl)cc2)c1 [Compound D25, 2-[(1Z)-5-Fluoro-2-methyl-1-({3-[4-chlorophenoxy]phenyl}methylidene)-1H-inden-3-yl]acetic acid] | > 90
CC1=C(CC(=O)O)c2cc(F)ccc2/C1=C\c1cccc(Oc2ccc(C(F)(F)F)cc2)c1 [Compound D26, 2-[(1Z)-5-Fluoro-2-methyl-1-({3-[4-trifluoromethylphenoxy]phenyl}-methylidene)-1H-inden-3-yl]acetic acid] | > 90
